From ChEMBL document CHEMBL1201862, “PubChem BioAssay data set” (2004)
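Cultured in 96-well plates, cells were exposed to test compound for 48 hours across five concentrations. GI50 = concentration required for 50% inhibition of growth.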 The source made the active and inactive calls. No stated cut-off is given here; in the data, active = GI50 up to about 1.1 µM and inactive = higher.

Key:
Assay in all cases: NCI-60 cell line screen, 48 h
DMS-273 = system: DMS-273
LXFL 529 = system: LXFL 529
HOP-18 = system: HOP-18
DMS-114 = system: DMS-114
SNB-78 = system: SNB-78
M19-MEL = system: M19-MEL
XF498 = system: XF498
RXF 631 = system: RXF 631

Row | SMILES | GI50 (DMS-273) | GI50 (LXFL 529) | GI50 (HOP-18) | GI50 (DMS-114) | GI50 (SNB-78) | GI50 (M19-MEL) | GI50 (XF498) | GI50 (RXF 631)
1 | CCCOC(=O)C1CCC(=O)N1C(=O)C(Cl)Cl (stereo unspecified) | > 100 µM (inactive) | > 100 µM (inactive) | > 100 µM (inactive) | > 100 µM (inactive) | > 100 µM (inactive) | > 100 µM (inactive) | > 100 µM (inactive) | –
2 | Cn1c(N)nc(=O)c2c1N(C1OC(CO)C(O)C1O)CN2Cc1ccccc1 (stereo unspecified) | > 100 µM (inactive) | > 100 µM (inactive) | > 100 µM (inactive) | > 100 µM (inactive) | > 100 µM (inactive) | > 100 µM (inactive) | > 100 µM (inactive) | > 100 µM (inactive)
3 | CC(=O)c1sc(-c2nc(C)c(C(=O)/C=C\c3ccc(/C=C\C(=O)c4sc(-c5nc(C)c(C(C)=O)s5)nc4C)cc3)s2)nc1C | > 100 µM (inactive) | > 100 µM (inactive) | > 100 µM (inactive) | > 100 µM (inactive) | > 100 µM (inactive) | > 100 µM (inactive) | > 100 µM (inactive) | –
4 | COc1ccc(Cc2c(=O)[nH]nc3ccccc23)cc1 | > 100 µM (inactive) | – | > 100 µM (inactive) | > 100 µM (inactive) | > 100 µM (inactive) | > 100 µM (inactive) | 33 µM (inactive) | > 100 µM (inactive)
5 | Cc1cc(Cl)ccc1N1C(=O)C(=O)C(c2nc3ccccc3s2)/C(=N\NC(=O)c2ccccc2O)C1=O (stereo unspecified) | > 100 µM (inactive) | > 100 µM (inactive) | > 100 µM (inactive) | > 100 µM (inactive) | > 100 µM (inactive) | > 100 µM (inactive) | – | > 100 µM (inactive)
6 | [O-][S+]1c2ccccc2N=C(c2cccs2)CC1c1ccccc1O (stereo unspecified) | – | > 100 µM (inactive) | – | 37.2 µM (inactive) | – | > 100 µM (inactive) | 32.1 µM (inactive) | > 100 µM (inactive)
7 | CN(C)CC(C)(C)C(=O)/C=C/c1ccc(/C=C/C(=O)C(C)(C)CN(C)C)cc1 | 0.706 µM (active) | 1.17 µM (inactive) | – | 1.3 µM (inactive) | – | 1.66 µM (inactive) | 1.22 µM (inactive) | 2 µM (inactive)
8 | O=C1c2ccccc2C(=O)N1/N=C\c1ccc(Br)cc1 | > 10 µM (inactive) | > 10 µM (inactive) | > 10 µM (inactive) | > 10 µM (inactive) | > 10 µM (inactive) | > 10 µM (inactive) | > 10 µM (inactive) | > 10 µM (inactive)
9 | CCOC(=O)C12C(C(=O)OC)=C(C)N(NC(=O)Nc3ccccc3)C1(N)N(NC(=O)Nc1ccccc1)C(C)=C2C(=O)OC (stereo unspecified) | 27.7 µM (inactive) | 26.1 µM (inactive) | 32.9 µM (inactive) | 31.9 µM (inactive) | 47.4 µM (inactive) | 18 µM (inactive) | 24.3 µM (inactive) | –
10 | O=C(O)CCC(N/C=C1/N=C(c2ccccc2)OC1=O)C(=O)O (stereo unspecified) | > 100 µM (inactive) | > 100 µM (inactive) | 36.1 µM (inactive) | > 100 µM (inactive) | > 100 µM (inactive) | > 100 µM (inactive) | – | > 100 µM (inactive)
11 | Cc1nc2ccc(N)cc2nc1O | > 100 µM (inactive) | > 100 µM (inactive) | – | – | > 100 µM (inactive) | > 100 µM (inactive) | – | > 100 µM (inactive)
12 | O=C(O)OC12CCCCCC1C(=O)C1CCCCC12 (stereo unspecified) | 62.5 µM (inactive) | > 100 µM (inactive) | > 100 µM (inactive) | 82 µM (inactive) | > 100 µM (inactive) | > 100 µM (inactive) | 82.6 µM (inactive) | –
13 | COc1cccc2c1N[S@](=O)S2 | > 100 µM (inactive) | 35.3 µM (inactive) | – | – | > 100 µM (inactive) | 35.6 µM (inactive) | 50.8 µM (inactive) | > 100 µM (inactive)
14 | O=C(NCC(O)CNC(=O)C(F)(F)F)C(F)(F)F | > 100 µM (inactive) | > 100 µM (inactive) | > 100 µM (inactive) | > 100 µM (inactive) | > 100 µM (inactive) | > 100 µM (inactive) | > 100 µM (inactive) | –
15 | CC(C)N(C(=O)C12C3C4C5(C#N)C3C1(I)C5C42I)C(C)C (stereo unspecified) | > 57.7 µM (inactive) | > 71.6 µM (inactive) | 97.5 µM (inactive) | > 42.5 µM (inactive) | 67.9 µM (inactive) | > 58.2 µM (inactive) | > 100 µM (inactive) | –
16 | COC(=O)[C@@]12C(=O)CCC(=O)C1C1C(=CC2C)O[C@@H]2OC3(CCCCC3)O[C@H]12 (stereo partly specified) | > 100 µM (inactive) | 44.5 µM (inactive) | > 64.3 µM (inactive) | 48 µM (inactive) | > 100 µM (inactive) | 61.9 µM (inactive) | > 38.4 µM (inactive) | –
17 | COc1ccc(/C(Cl)=C(\C=O)c2ccc([N+](=O)[O-])cc2)cc1OC | 11.8 µM (inactive) | 3.23 µM (inactive) | 10.5 µM (inactive) | 5.78 µM (inactive) | 4.3 µM (inactive) | 11 µM (inactive) | 7.4 µM (inactive) | 12.4 µM (inactive)
18 | N#CN=C(NCc1ccccc1)NCc1ccccc1 | > 41.9 µM (inactive) | > 92 µM (inactive) | > 100 µM (inactive) | > 38.3 µM (inactive) | > 100 µM (inactive) | > 54.7 µM (inactive) | > 77.1 µM (inactive) | –
19 | CSC(=S)c1ccc(C(=S)SC)cc1 | > 100 µM (inactive) | > 100 µM (inactive) | > 100 µM (inactive) | > 100 µM (inactive) | > 100 µM (inactive) | > 100 µM (inactive) | > 100 µM (inactive) | > 100 µM (inactive)
